Data: PMC3951324, “Side Chain Hydrophobicity Modulates Therapeutic Activity and Membrane Selectivity of Antimicrobial Peptide Mastoparan-X” (PLoS ONE, 2014)
Converted amounts (≈) assume the structure as drawn. Square brackets hold non-standard residues; d marks the D form. Ends that are not written are not given here. Peptide text beside a SMILES is read from it. * marks the point of attachment. ξ: configuration not given here. ξGly(octyl) = CCCCCCCCC(N)C(=O)O; Octanoyl = CCCCCCCC(=O)*; Propionyl = CCC(=O)*

What was measured:
[1] = tested on: human red blood cells (RBCs); assay: Haemolysis assay; type: cell-based; details: for % haemolysis: human RBCs; for H5, concentration at which 5% haemolysis has been obtained: purified human erythrocytes, assay as in Etzerodt et al. [14]
Description: All Fmoc (9H-fluoren-9-yl-methyloxycarbonyl) L-amino acids and HATU (1-[Bis(dimethylamino)methylene]-1H-1,2,3-triazolo[4,5-b]pyridinium 3-oxid hexafluorophosphate, N-[(Dimethylamino)-1H-1,2,3-triazolo-[4,5-b]pyridin-1-ylmethylene]-N-methylmethanaminium hexafluorophosphate N-oxide) were purchased from GLS China (GL Biochem, Shanghai, China). Fmoc-2-amino-decanoic acid was obtained from Watanabe Chemical Industries, Ltd (Hiroshima, Japan). Lys and Trp were side-chain-protected as tert-butoxycarbonyl, Asn was sidechain protected with trityl. Tentagel resin was purchased from NovaBiochem (Merck, Darmstadt, Germany). TFA (trifluoroacetic acid), TIS (triisopropylsilane), HEPES (N-(2-hydroxyethyl)piperazine-N-(2-ethanesulfonic acid)), 2,4,6-collidine and pyrene were purchased from Sigma-Aldrich (Brøndby, Denmark). Pyridine, sodium hydroxide pellets and sodium chloride was purchased from J.T. Baker Chemicals (Phillipsburg, NJ, USA). Filter supports and Hamilton extrusion syringes, POPG (1-palmitoyl-2-oleoyl-sn-glycero-3-[phospho-rac-(1-glycerol)] sodium salt), and POPC (1-palmitoyl-2-oleoyl-sn-glycero-3-phosphocholine) were purchased from Avanti Polar Lipids (Alabaster, AL). All compounds were used without further purification. Membrane filters for extrusion (100 nm pore size, polycarbonate) were purchased from Whatman (Maidstone, UK). Cuvettes (4×10 mm, quartz, Suprasil) were purchased from Hellma (Müllheim, Germany). Purified human erythrocytes for the haemolysis studies were provided by Bioneer (Hørsholm, Denmark), and were stored at 4°C for a maximum of three days before use.
The assay was conducted as described in Etzerodt et al..

[2] = tested on: Escherichia coli, strain INV-α; assay: Determination of minimal inhibitory concentration (MIC); type: cell-based; details: LB medium, 37°C, 20 h, shaking, peptide 0.05–50 µM, absorbance 570 nm, triplicates
Experimental: (§1) A stock dilution series with ten points, ranging from 1 µM to 1 mM, was prepared in sterile PBS from freshly dissolved peptides. The dilution series was dispensed in triplicates in 96-deepwell microtiter plates (VWR Denmark, Herlev, Denmark), with 15 µl in each well. Multidispensing with electronic pipettes (Biohit, Tåstrup, Denmark) was used throughout. Lactococcus lactis, strain MG1363 (ATCC, LGC Standards AB, Boras, Sweden) and Escherichia coli, strain INV-α (Invitrogen, Nærum, Denmark) were grown in M9 (Sigma Aldrich, Brøndby, Denmark) and LB medium (Difco, BD Biosciences, Brøndby Denmark), respectively. A single colony was grown overnight at 30°C and 37°C for L.lactis and E.coli respectively. The next day, a fresh culture was started with a twenty-fold dilution of the cells and grown for exactly 60 min (optical density was approximately 0.4 at 570 nm). The cell culture was diluted (300 fold for L.lactis and 1000 fold for E.coli) before adding 150 µl to microtiter plates already containing 15 µl peptide solution and 135 µl fresh medium. […] Plates with L.lactis were sealed with lid and parafilm, and plates with E.coli were sealed with a gas-permeable tape (VWR Denmark, Herlev, Denmark). The plates were incubated at the respective temperatures for 20 hours with shaking (150 rpm). For each measurement, 100 µl of the cell culture was transferred to clear, flat-bottomed microtiter plates, and the absorbance at 570 nm was determined using a Victor3 plate reader (Perkin Elmer, Skovlunde, Denmark). The measurement was conducted in triplicates.

[3] = tested on: Lactococcus lactis, strain MG1363; assay: as above; type: cell-based; details: strain MG1363, M9 medium, 30°C, 20 h, shaking; peptide 0.05–50 µM; absorbance 570 nm; triplicates
Experimental: as §1

[4] = Peptide partitioning by ITC; type: physicochemical; details: 37°C; for partition coefficient of insertion Kins/10^5: 10 mM POPC∶POPG (3∶1) LUVs into 20 µM peptide, pH 7.4, Gouy-Chapman-Stern fit, value is Kins divided by 10^5, triplicates; for effective partition coefficient Keff/10^8: derived from Kins, zeff and the surface potential of fully charged membrane (25 mol% negative charge), value is Keff divided by 10^8
Experimental: Lipid stock solutions of POPC and POPG were prepared in chloroform∶methanol (9∶1). Mixtures of POPC∶POPG (3∶1) were prepared and the organic solvent was evaporated under a gentle stream of nitrogen. The lipid films were kept in vacuum (P<0.1 Pa) overnight in order to remove the residual solvent. Buffer containing 10 mM HEPES and 100 mM sodium chloride (pH 7.4) was added to the lipid films, and they were hydrated for 60 min followed by extrusion through 100 nm using an Avanti mini-extruder. Dynamic Light Scattering (DLS, Brookhaven Instrument Corporation, ZetaPALS) was used for measuring the liposome size distribution. The effective lipid concentration was determined by inductively coupled plasma atomic emission spectroscopy (ICP-AES Vista AX, Varian).
The partitioning of AMPs onto lipid membranes was investigated by isothermal titration calorimetry (ITC, iTC200, Microcal, 204 µL cell volume). For the peptide analogues MPX, Ala1 and Ala14, 10 mM […] (3∶1) LUVs were injected (19×2 µL) into a 20 µM peptide solution at T = 37°C. The speed of the stirrer was 1000 rpms, and all titration were initiated with a 0.5 µL pre-injection. The heat-traces were integrated using custom made software, and the heat of partitioning was analysed using a partitioning isotherm based on Gouy-Chapman-Stern description of the electrostatic interaction of the peptide and membrane, [32]. The effective charge of the peptide (zeff), the partitioning coefficient of insertion (Kins), the molar enthalpy of partitioning ( [drawing 4] ), and the heat of dilution (qdil) were extracted as fitting parameters. The effective partitioning coefficient was derived as [drawing 5] where F is Faradays constant, [drawing 6] is the electrostatic potential evaluated at the interface of a fully charged membrane (25mol% negative charge before insertion of the first peptide), and R is the ideal gas constant. The instrument was electrically calibrated, and blank titration of LUVs into buffer was performed to ensure that heat of dilution could be modelled as a constant in the data analysis. Each titration was conducted in triplicates.

Molecule	% haemolysis ([1]; 50 µM peptide)	H5, concentration at which 5% haemolysis has been obtained [1] [µM]	MIC (E. coli) [2] [µM]	MIC (L. lactis) [3] [µM]	partition coefficient of insertion Kins/10^5 [4]	effective partition coefficient Keff/10^8 [4]	% haemolysis ([1]; 200 µM peptide) [%]
CCC(=O)N[C@H](C(=O)N[C@@H](CC(N)=O)C(=O)N[C@@H](Cc1c[nH]c2ccccc12)C(=O)N[C@@H](CCCCN)C(=O)NCC(=O)N[C@H](C(=O)N[C@@H](C)C(=O)N[C@@H](C)C(=O)N[C@@H](CCSC)C(=O)N[C@@H](C)C(=O)N[C@@H](CCCCN)C(=O)N[C@@H](CCCCN)C(=O)N[C@@H](CC(C)C)C(=O)N[C@@H](CC(C)C)C(N)=O)[C@@H](C)CC)[C@@H](C)CC [PAMPX] (Propionyl-INWKGIAAMAKKLL-NH2)	10%	25 ± 1	21 ± 4 (≈ 33.9 µg/mL)	3.3 ± 0.8 (≈ 5.32 µg/mL)	–	–	–
CCCCCCCC(=O)N[C@H](C(=O)N[C@@H](CC(N)=O)C(=O)N[C@@H](Cc1c[nH]c2ccccc12)C(=O)N[C@@H](CCCCN)C(=O)NCC(=O)N[C@H](C(=O)N[C@@H](C)C(=O)N[C@@H](C)C(=O)N[C@@H](CCSC)C(=O)N[C@@H](C)C(=O)N[C@@H](CCCCN)C(=O)N[C@@H](CCCCN)C(=O)N[C@@H](CC(C)C)C(=O)N[C@@H](CC(C)C)C(N)=O)[C@@H](C)CC)[C@@H](C)CC [OAMPX] (Octanoyl-INWKGIAAMAKKLL-NH2)	full haemolysis	1.1 ± 0.3	5 ± 1 (≈ 8.41 µg/mL)	3.3 ± 0.8 (≈ 5.55 µg/mL)	–	–	–
INWKGIAAMAKKLA-NH2 [Ala14]	~1.5%	220 ± 20	33 ± 8	21 ± 4	1.4±0.3	1.1±0.2	~4
CCCCCCCCC(NC(=O)[C@H](CC(C)C)NC(=O)[C@H](CCCCN)NC(=O)[C@H](CCCCN)NC(=O)[C@H](C)NC(=O)[C@H](CCSC)NC(=O)[C@H](C)NC(=O)[C@H](C)NC(=O)[C@@H](NC(=O)CNC(=O)[C@H](CCCCN)NC(=O)[C@H](Cc1c[nH]c2ccccc12)NC(=O)[C@H](CC(N)=O)NC(=O)[C@@H](N)[C@@H](C)CC)[C@@H](C)CC)C(N)=O (stereo partly shown) [Adec14] (H-INWKGIAAMAKKL[ξGly(octyl)]-NH2)	full haemolysis	0.8 ± 0.2	3.3 ± 0.8 (≈ 5.32 µg/mL)	1.7 ± 0.4 (≈ 2.74 µg/mL)	–	–	–
INWKGIALMAKKLL-NH2 [Leu8]	–	14 ± 2	7 ± 3	2.5 ± 1.3	–	–	–
CCCCCCCCC(N)C(=O)N[C@@H](CC(N)=O)C(=O)N[C@@H](Cc1c[nH]c2ccccc12)C(=O)N[C@@H](CCCCN)C(=O)NCC(=O)N[C@H](C(=O)N[C@@H](C)C(=O)N[C@@H](C)C(=O)N[C@@H](CCSC)C(=O)N[C@@H](C)C(=O)N[C@@H](CCCCN)C(=O)N[C@@H](CCCCN)C(=O)N[C@@H](CC(C)C)C(=O)N[C@@H](CC(C)C)C(N)=O)[C@@H](C)CC (stereo partly shown) [Adec1] (H-[ξGly(octyl)]NWKGIAAMAKKLL-NH2)	full haemolysis	0.7 ± 0.1	3.3 ± 0.8 (≈ 5.32 µg/mL)	1.7 ± 0.4 (≈ 2.74 µg/mL)	–	–	–
CCCCCCCCC(NC(=O)[C@H](C)NC(=O)[C@@H](NC(=O)CNC(=O)[C@H](CCCCN)NC(=O)[C@H](Cc1c[nH]c2ccccc12)NC(=O)[C@H](CC(N)=O)NC(=O)[C@@H](N)[C@@H](C)CC)[C@@H](C)CC)C(=O)N[C@@H](CCSC)C(=O)N[C@@H](C)C(=O)N[C@@H](CCCCN)C(=O)N[C@@H](CCCCN)C(=O)N[C@@H](CC(C)C)C(=O)N[C@@H](CC(C)C)C(N)=O (stereo partly shown) [Adec8] (H-INWKGIA[ξGly(octyl)]MAKKLL-NH2)	full haemolysis	1 ± 1	4.2 ± 0.8 (≈ 6.95 µg/mL)	4.2 ± 0.8 (≈ 6.95 µg/mL)	–	–	–
ANWKGIAAMAKKLL-NH2 [Ala1]	~1.5%	230 ± 10	33 ± 8	18 ± 7	1.1±0.1	25±7	~4
